In patent US9611503B2, “Escherichia coli cell line with thyA knockout and folA knockout” (priority 2011, dated 2017) one finds IC50 and Ki data, which are given here for 1 molecule.

The test system of experiment [1] is E. coli thyA folA KO + Lm wt. Nature of the experiment: microbe, parasite or virus in culture. The experiment is classed as cell-based. Particulars: Escherichia coli; host expressing Leishmania major DHFR-TS; 6 hours, OD 600 nm.
Experiment [2] concerns E. coli thyA folA KO + Tg wt. The experiment in a line: microbe, parasite or virus in culture. Particulars: Escherichia coli; host expressing Toxoplasma gondii wildtype DHFR-TS; 6 hours, OD 600 nm. The experiment is classed as cell-based.
The subject of experiment [3] is E. coli thyA folA KO + Tg mt. The experiment in a line: microbe, parasite or virus in culture. It is filed as cell-based. Particulars: Escherichia coli; host expressing Toxoplasma gondii double mutant DHFR-TS; 6 hours, OD 600 nm.
The test system of experiment [4] is E. coli thyA folA KO + Pv wt. The experiment in a line: microbe, parasite or virus in culture. The experiment is classed as cell-based. The note with it: Escherichia coli; host expressing P. vivax wildtype DHFR-TS; 6 hours, OD 600 nm.
In experiment [5] the target is DHFR-TS from Plasmodium malariae (wildtype) (Plasmodium malariae, UniProt A0A1D3JLL1). Nature of the experiment: In vitro biochemical enzyme inhibition assay, purified DHFR-TS. The note with it: purified P. malariae wildtype DHFR-TS.
Experiment [6] relates to E. coli thyA folA KO + Pv mt. The experiment in a line: microbe, parasite or virus in culture. It is filed as cell-based. Particulars: Escherichia coli; host expressing P. vivax sp21 double mutant DHFR-TS; 6 hours, OD 600 nm.
Experiment [7] deals with E. coli thyA folA KO + Pf TM4. Nature of the experiment: microbe, parasite or virus in culture. It is filed as cell-based. Particulars: Escherichia coli; host expressing P. falciparum TM4 DHFR-TS; minimal media with ampicillin, 37 degrees Celsius, 6 hours, OD 600 nm.
The subject of experiment [8] is E. coli thyA folA KO + Tb wt. Nature of the experiment: microbe, parasite or virus in culture. It is filed as cell-based. Particulars: Escherichia coli, 6 h.
Experiment [9] has as its system E. coli thyA folA KO + Pm wt. Nature of the experiment: microbe, parasite or virus in culture. The note with it: Escherichia coli; host expressing P. malariae wildtype DHFR-TS; 6 hours, OD 600 nm. It is filed as cell-based.
Experiment [10] concerns E. coli thyA folA KO + Pf K1. The experiment in a line: microbe, parasite or virus in culture. It is filed as cell-based. Particulars: Escherichia coli; host expressing P. falciparum K1 DHFR-TS; minimal media with ampicillin, 37 degrees Celsius, 6 hours, OD 600 nm.

DHFR-TS from Plasmodium malariae (wildtype), sequence (A0A1D3JLL1 entry or part of it): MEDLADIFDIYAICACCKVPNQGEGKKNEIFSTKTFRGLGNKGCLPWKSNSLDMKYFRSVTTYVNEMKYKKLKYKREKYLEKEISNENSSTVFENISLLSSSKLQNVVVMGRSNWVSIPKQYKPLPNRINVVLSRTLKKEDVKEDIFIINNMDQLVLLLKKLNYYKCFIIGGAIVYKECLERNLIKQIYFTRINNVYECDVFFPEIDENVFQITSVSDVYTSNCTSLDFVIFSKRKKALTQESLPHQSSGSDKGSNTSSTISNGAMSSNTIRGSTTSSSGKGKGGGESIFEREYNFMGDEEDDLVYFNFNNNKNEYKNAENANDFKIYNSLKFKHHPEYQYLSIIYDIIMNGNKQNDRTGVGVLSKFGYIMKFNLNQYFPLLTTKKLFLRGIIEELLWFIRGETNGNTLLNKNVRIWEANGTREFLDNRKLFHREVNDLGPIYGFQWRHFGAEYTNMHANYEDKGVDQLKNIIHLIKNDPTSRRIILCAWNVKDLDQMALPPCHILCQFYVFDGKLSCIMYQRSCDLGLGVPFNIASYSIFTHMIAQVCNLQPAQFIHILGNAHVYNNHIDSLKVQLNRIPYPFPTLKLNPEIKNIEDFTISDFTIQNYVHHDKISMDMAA

Consider `CCc1nc(N)nc(N)c1-c1ccc(Cl)cc1` [Pyrimethamine], for which the IC50 (as a rule, the concentration at which inhibition is half-maximal) was greater than 100 µM in [1]; greater than 100 µM in experiment [2]; greater than 100 µM in experiment [3]; 3.08 ± 0.33 µM in [4]; greater than 100 µM in experiment [6]; 0.07 ± 0.01 µM in experiment [7]. The IC50 in experiment [8] was greater than 100 µM; in experiment [9] it was 0.77 ± 0.22 µM; in [10], 31.93 ± 0.16 µM. Further, in experiment [5], the Ki (in general, a measure of affinity in units of concentration, obtained from inhibition or displacement) stood at 0.00054 ± 6e-05 µM.
